Reference: article PMC12123366, “Effect of urea and squaramide IMPDH inhibitors on C. parvum: in vitro trial design impacts the assessment of drug efficacy” (International Journal for Parasitology: Drugs and Drug …, 2025)
Read-outs that look alike come from different tables or passages of the source.

Key:
[1] = CytoTox 96 Non-Radioactive Cytotoxicity Assay; assay type: cell-based, Human; details: human; HCT-8 cells, 10 µM
Experimental: (§1) HCT-8 cell lines (Human ileocecal adenocarcinoma) were purchased from The European Collection of Authenticated Cell Cultures (ECACC) under catalogue number No 90032006) and maintained with regular subculturing in a growth medium consisting in a RPMI 1640 medium supplemented with 1 mM sodium pyruvate, 2 mM l-glutamine, 10 % (vol/vol) of heat-inactivated fetal calf serum, 100 U/mL of penicillin and 100 μg/mL of streptomycin. Cells were grown in an incubator at 37 °C with 5 % (vol/vol) CO2 until monolayers reached 80–90 % confluency. Cells were cultivated in 96-well format plate for molecular analysis and in Lab-Tek™ Chamber Slides for microscopic analysis. 50,000 cells were seeded and incubated during 24 h (until confluency) before infection.
(§2) The compounds (2 mg/mL in DMSO) were diluted to 500 μM and serially diluted in maintenance medium. The cytotoxicity of the compounds was assessed using the CytoTox 96® Non-Radioactive Cytotoxicity Assay (Promega, G1790) in accordance with the manufacturer's protocol.
(§3) An initial screening experiment was conducted on the full library to evaluate the cytotoxicity effects on HCT-8 cells. Nitrophenylurea 12 was identified as being cytotoxic so was not progressed further (See Supporting Information). In total, 21 candidates were assessed for their ability to inhibit C. parvum replication at a concentration of 10 μM. Each compound was added at the start of the infection of HCT-8 cells (T0) and remained in the culture for 48 h post infection (hpi). Parasitic quantification was then performed using a molecular method (qPCR). Of the 21 compounds tested, nine were effective inhibitors, reducing parasite proliferation by 80 % or more (Fig. 6). A clear trend emerged with all of the benzyl-substituted ureas 6–10 displaying poor inhibitory activity, regardless of the attached heteroaryl substituent. […] Two exceptions to this were imidazole-containing analogues 18 and 19. […] Among the squaramide series, the results were highly dependent on the nature of the substituent, ranging from high (e.g. ketone 29, furan 32), medium (e.g. 3-pyrazole 30) to low (e.g. 4-pyrazole 31) anti-cryptosporidial activity.

[2] = tested on: C. parvum; experiment: Inhibition of C. parvum replication in infected HCT-8 cells, parasite quantification by qPCR; assay type: cell-based, Cryptosporidium parvum (Iowa strain) in human HCT-8 cells; details: for inhibition at 10 µM / IC50: Cryptosporidium parvum, HCT-8; for inhibition at 10 µM: added at start of infection (T0), 48 hpi, mean ± SD (n = 3 wells), read-out: inhibition rate of C. parvum replication; for inhibition at 10 µM / anti-cryptosporidial activity (in words): 10 μM; for anti-cryptosporidial activity (in words): added at T0, 48 hpi
Experimental: as §1
(§4) C. parvum oocysts of “Iowa” strain was purchased from Waterborne Inc. and stored in PBS at 4 °C. A ratio of one oocyst per cell was used to infect HCT-8 cell. Oocysts suspension was incubated with 10 % of a solution (vol/vol) containing 0.5 % sodium hypochlorite for 10 min at 4 °C. After a washing step by centrifugation at 1800g for 15 min at 4 °C, oocysts were incubated in acidified water (pH 2.4) containing 0.025 % (wt/vol) of trypsin, at 37 °C for 20 min, to trigger excystation (infectivity assay developed by [Keegan et al., 2003]). After a third centrifugation step at 1800 g for 10 min, oocysts were suspended in a maintenance medium. The maintenance medium consisted of RPMI 1640 medium with 2 mM l-glutamine, 5 mM glucose, 0.5 μM folic acid, 7 μM 4-amino-benzoic acid, 0.1 μM calcium pantothenate, 50 nM ascorbic acid, 2 % (vol/vol) heat inactivated fetal calf serum and 100 U/mL of streptomycin/penicillin. Before oocyst inoculation, the growth medium was switched with maintenance medium. Triggered oocysts were finally added on monolayers and incubated during 48 h at 37 °C in a 5 % (vol/vol) CO2 atmosphere.
as §2
The COWP gene (GenBank no. AF248743) was amplified by qPCR following the previously described protocol ([Guy et al., 2003]), and the parasitic concentration was determined using the standard range of C. parvum oocyst concentrations. Briefly, serial dilutions from a pure C. parvum oocyst suspension were made starting from a stock solution of 5 × 10^7 oocysts (4 × 10^5 – 2 × 10^5 – 1 × 10^5 – […]–2.5 × 10^3–1.25 × 10^3 oocysts) and the standard curve for quantifying parasites was created to obtain a correlation between Cq values and the Log of concentration.
At the end of the experiment, supernatants from the C. parvum-infected cell cultures were collected. The cell layers were then washed (1x PBS), detached using trypsin (0.25 %), and centrifuged (10,000×g, 10 min). The resulting cell pellet was re-suspended in 150–200 μL of sterile 1x PBS and stored at −20 °C for later DNA extraction. DNA extraction of C. parvum was performed using the Purelink™ Microbiome Purification Kit (Invitrogen™) following the manufacturer's protocol “Transport Media and Microbial Culture Samples” ([Invitrogen, 2015]).
FRePCR reactions were formulated to a volume of 25 μL and comprised of 1.25 μL of primers (10 μM), 0.05 μL probe (100 μM), 12.5 μL Master Mix 2X, LightCycler 480 Probes Master (ref. 04707494001, Roche), 4.95 μL H2O nuclease-free and 5 μL of DNA template. Quantitative PCR was run on a CFX96 real time PCR system (BioRad) with an initial step of activation (10 min 95 °C) following by 40 cycles with cycling conditions as follows: 95 °C for 10 s, 60 °C for 1 min. BioRad CFX manager software was used to analyse the data. Samples were considered negative if Cq ≥ 40.
A common way of defining a 50 % response is to use a mathematical model like the 4-parameter logistic model (4 PL) ([Sebaugh, 2011]). […]

[3] = tested on: HCT-8 cells; experiment: CytoTox 96 Non-Radioactive Cytotoxicity Assay; assay type: cell-based, Human; details: 10 µM
Experimental: as §1, §2, §3

[4] = tested on: C. parvum; experiment: Quantification of C. parvum development in HCT-8 cells by immunofluorescence microscopy; assay type: cell-based, Cryptosporidium parvum (Iowa strain) in human HCT-8 cells; details: for effect on distribution of parasite area: 7.5 μM or 15 μM, added at 30 hpi until 48 hpi; for reduction in parasite quantification: 7.5 μM, added at 30 hpi, until 48 hpi, fluorescence microscopy
Experimental: as §1, §4
After aspiration of the supernatant from the Nunc™ Lab-Tek™ Chamber slide wells, cells were rinsed with PBS 1X. A fixation step was then performed using methanol during 8 min at 4 °C. Cryptosporidium developmental forms were labelled with a polyclonal IgG antibodies reaction kit tagged with Cy3 (Sporo-Glo™, Waterborne Inc.) and oocysts were labelled with FL-Crypt-a-Glo™, a fluorescein-labelled mouse monoclonal antibody made to oocyst outer wall antigenic sites (epitopes) of C. parvum. Antibodies were 1/20th diluted and incubated on cells for 1 h at room temperature. DNA was labelled with Hoechst for 5 min at room temperature. Slides were then coverslipped with a no fading mounting medium (Waterborne Inc.) and observed with a Leica DMi8 microscope. Each dilution was performed in triplicate and, for each well, ten images were taken at 400× magnification. Parasite quantification was carried out automatically using the StarDist neural network, which was specifically trained to detect and quantify C. parvum parasites.
To confirm our initial findings, we employed an alternative method using immunofluorescence microscopy to quantify C. parvum development in the presence of inhibitors (Fig. S1). […] The results corroborated our initial screening data, confirming the high efficacy of all tested chloronitrophenyl urea analogues, except for imidazole derivatives 18 and 19.
To test this hypothesis, increasing concentrations of squaramide 32 (i.e. 0, 2, 4 and 8 μM) were applied at different infection times: at 0 hpi (hours post infection), to assess the impact on parasite invasion; at 4 hpi, to examine the effect on the early stages of intracellular development; and at 30 hpi, to evaluate the influence on late stage intracellular development. The microscopic images in Fig. 7 illustrate the effect of 32 when applied at the onset of infection and at 30 hpi. Using fluorescent antibodies, the intracellular development of C. parvum is highlighted by green fluorescence, which allows for quantification of the number of parasites per image.

[5] = compounds at 0, 3, 6 and 9 μM added at t0 and left until 48 hpi, qPCR, read-out: IC50

Compound	viability at 10 µM [1]	inhibition at 10 µM ([2]; qPCR)	IC50 [2, 5]	other results
CC(C)(NC(=O)NCc1ccccc1)c1cccc(-c2ccco2)c1 [Compound 8]	95.9%			
CC(C)(NC(=O)Nc1ccc(Cl)c([N+](=O)[O-])c1)c1cccc(-c2ccco2)c1 [Compound 21]	98.3%	64 ± 1%	6.19 µM	
CC(C)(NC(=O)NCc1ccccc1)c1cccc(-c2ccccc2)c1 [Compound 10]	97.4%			
CC(C)(NC(=O)Nc1ccc(Cl)c([N+](=O)[O-])c1)c1cccc(-c2cc[nH]n2)c1 [Compound 14]	97.6%	85.1 ± 3.8%	6.19 µM	
CC(C)(Nc1c(Nc2ccc(Cl)c([N+](=O)[O-])c2)c(=O)c1=O)c1cccc(-c2cc[nH]n2)c1 [Compound 30, 3-((2-(3-(1H-Pyrazol-3-yl)phenyl)propan-2-yl)amino)-4-((4-chloro-3-nitrophenyl)amino)cyclobut-3-ene-1,2-dione]	98.2%			anti-cryptosporidial activity (in words) ([2]; qPCR): medium
CC(C)(NC(=O)NCc1ccccc1)c1cccc(-c2cc[nH]n2)c1 [Compound 6]	97%			
CC(C)(Nc1c(Nc2ccc(Cl)c([N+](=O)[O-])c2)c(=O)c1=O)c1cccc(-c2cn[nH]c2)c1 [Compound 31, (3-((2-(3-(1H-Pyrazol-4-yl)phenyl)propan-2-yl)amino)-2-((4-chloro-3-nitrophenyl)amino)-4-oxocyclobut-2-en-1-ylidene)oxonium]				anti-cryptosporidial activity (in words) ([2]; qPCR): low; Viability [3]: 96.97%
CC(C)(NC(=O)NCc1ccccc1)c1cccc(-c2cn[nH]c2)c1 [Compound 7]	96.7%			
CCOC(=O)n1ccc(-c2cccc(C(C)(C)NC(=O)Nc3ccc(Cl)c([N+](=O)[O-])c3)c2)n1 [Compound 13]	97.2%	87.5 ± 6.4%	5.44 µM	
NC[C@@H]1O[C@H](O[C@H]2[C@@H](O)[C@H](O[C@@H]3[C@@H](O)[C@H](N)C[C@H](N)[C@H]3O[C@H]3O[C@H](CO)[C@@H](O)[C@H](O)[C@H]3N)O[C@@H]2CO)[C@H](N)[C@@H](O)[C@@H]1O [Paromomycin, reference compound]				IC50 ([2]; previous experimentation based on qPCR, standard Cryptosporidium inhibitor in in vitro assays, read-out: mean IC50): 511 µM
CCOc1ncccc1-c1cccc(C(C)(C)NC(=O)Nc2ccc(Cl)c([N+](=O)[O-])c2)c1 [Compound 23]	94.1%	88 ± 3.5%	3.23 µM	effect on distribution of parasite area [4]: successfully inhibits larger parasites; reduction in parasite quantification [4]: 32%
CC(C)(NC(=O)Nc1ccc(Cl)c([N+](=O)[O-])c1)c1cccc(-c2c[nH]cn2)c1 [Compound 19]	97.4%	≤ 50%		
CC(C)(NC(=O)Nc1ccc(Cl)c([N+](=O)[O-])c1)c1cccc(-c2cccs2)c1 [Compound 22]	98.5%	86.6 ± 2.6%	3.77 µM	
CC(C)(NC(=O)Nc1ccc(Cl)c([N+](=O)[O-])c1)c1cccc(-c2cccnc2F)c1 [Compound 24]	96.8%	83.4 ± 1.5%	3.64 µM	effect on distribution of parasite area [4]: dose-dependent effect; reduction in parasite quantification [4]: 10.5%
CC(C)(NC(=O)Nc1ccc(Cl)c([N+](=O)[O-])c1)c1cccc(-c2nccs2)c1 [Compound 20]	98.4%	85.7 ± 2.2%	4.51 µM	
CC(=O)c1cccc(C(C)(C)Nc2c(Nc3ccc(Cl)c([N+](=O)[O-])c3)c(=O)c2=O)c1 [Compound 29, 3-((2-(3-acetylphenyl)propan-2-yl)amino)-4-((4-chloro-3-nitrophenyl)amino)cyclobut-3-ene-1,2-dione]	97.2%	87.7 ± 1.7%	3.59 µM	anti-cryptosporidial activity (in words) ([2]; qPCR): high
CC(C)(NC(=O)Nc1ccc(Cl)c([N+](=O)[O-])c1)c1cccc(-c2cn[nH]c2)c1 [Compound 16]	96.4%	64.3 ± 3.9%	5.32 µM	
CC(C)(NC(=O)Nc1ccc(Cl)c([N+](=O)[O-])c1)c1cccc(-c2nccn2Cc2ccccc2)c1 [Compound 17]	97.3%	88.2 ± 1.1%	4.69 µM	
CC(C)(NC(=O)NCc1ccccc1)c1cccc(-c2cccs2)c1 [Compound 9]	95.4%			
CCOC(=O)n1cc(-c2cccc(C(C)(C)NC(=O)Nc3ccc(Cl)c([N+](=O)[O-])c3)c2)cn1 [Compound 15]	97.5%	71.7 ± 1.5%	5.98 µM	
CC(C)(NC(=O)Nc1ccc(Cl)c([N+](=O)[O-])c1)c1cccc(-c2cn(C(c3ccccc3)(c3ccccc3)c3ccccc3)cn2)c1 [Compound 18]	97.3%	≤ 50%		
